Read-outs that look alike come from different tables or passages of the source.
Legend:
[1] = Phase solubility study of indomethacin in aqueous dendrimer solutions; format: physicochemical; settings: indomethacin with PAMAM (fourth generation), 25° C.
Protocol: Solubility studies were carried out as described by Higuchi and Connors with minor modifications.
Solubility phase diagram depicts the AN type of curve (FIG. 2), which represent a decreasing dependence on the ligand added at higher concentration. This type is comparatively least frequently encountered system, and its occurrence may be explained on the basis of self-association of the ligand at high concentration, which is in contrast to the curve reported by Emanuele et al, for dendrimer using ibuprofen. The negative slope in the curve may be due to the aggregation of dendrimer with the increasing concentration.

[2] = tested on: cotton pellet granuloma in rats; experiment: Cotton pellet test in rats (sub-acute model); format: in vivo; settings: granuloma dry weight vs control, dosed once a day, day 1 to 7; I 1.4 mg/kg, D 12 mg/kg, DI 1.4 mg/kg I + 12 mg/kg D
Protocol: Cotton pellet test in rats: Four autoclaved pellets of cotton weighing 10 mg±0.5 mg were implanted on the previously shaved groin and axilla (two cotton pellet in each) region of rats aseptically. The test formulations (D,I and DI) were fed once a day from 1 to 7 of the experiment. On the day 8 th, the rats were etherized by an overdose of ether and the pellets surrounded by granuloma tissue wre dissected out carefully and dried in a hot oven at 60° C. till a constant weight was obtained. Ulcers were not found in any of the case. After dissection various organs were removed, washed, dried and weighed and histopathology was carried out. No abnormalities were found after conducting the histopathology of liver, lung, kidney and spleen.
The subcutaneous implantation of cotton pellets provides inflammatory exudates that are easily processed. Implantation of cotton pellet triggers the series of cascade inflammatory reaction, leads to the migration of mediators of the inflammation in the zone of implantation.

[3] = Comparative behavior of dendrimer and indomethacin at different pH (solubility); format: physicochemical
Protocol: To study the comparative behavior of dendrimer and indometacin at different pH two possibilities were tried. […] The pH of the aqueous solutions of dendrimer was adjusted using 0.1 N HCl and 1M NaOH. […] To the aqueous solutions of various pH (pH-2, 4 7, 8 and 10), dendrimer was added at different percentage. (0.075, 0.15, 0.2). pH was measured in each case. […] The amines of dendrimer will show maximum ionization at acidic pH and minimum ionization at basic pH. […] (initial pH).

[4] = Hematological parameters in arthritic rats (blood cell counter)
Protocol: (§1) Hematological parameters were determined by blood cell counter (Medonic CA 620).

[5] = tested on: Adjuvant-induced arthritis in rats; experiment: Adjuvant-induced arthritis in rats (chronic model); format: in vivo; settings: foot swelling, daily dosing I 1 mg/kg, D 9 mg/kg, DI 1 mg/kg I + 9 mg/kg D
Excerpt: Rats were sacrificed. After dissection various organs were removed, washed, dried and weighed. Ulcers were not observed in any of the cases.
The body weight and feed intake of rats were monitored regularly. Weight gain has also been used as a parameter for assessing drug effectiveness.

[6] = rat, in vivo
Protocol: as §1

For `COc1ccc2c(c1)c(CC(=O)O)c(C)n2C(=O)c1ccc(Cl)cc1` [I, Indomethacin], the “type of phase solubility profile” value [1] was “AN type of solubility profile”, the “Mean Percentage Inhibition ± SE” value [2] was 22 ± 1.2% and the “solubility of indomethacin on addition of dendrimer (in words)” value ([3]; case-A: filtered saturated solution of indomethacin) was “found to be decrease”. The “solubility of indomethacin on addition of dendrimer (in words)” value ([3]; case-B: suspension with un-dissolved drug, dendrimer 0.075%, 0.15%, 0.2%) was “further increased”, the Haematocrit [4] was 30.3% and the Hemoglobin concentration [4] was 11.6 gm/dl. For the same compound, the Large platelets [4] was 8.05%, the “Mean Platelet Cell Volume” value [4] was 6.55 um^3 and the Mean cell hemoglobin [4] was 19.9 pg. For the same compound, the “Mean cell hemoglobin concentration” value [4] was 38.2 g/dL, the “Mean cell volume for red blood cell” value [4] was 52 um^3 and the Packed platelet volume [4] was 0.51%. For the same compound, the Platelet distribution width [4] was 8.63 um^3, the Platelets [4] was 778 10^3\mm^3 and the Red blood cell [4] was 5.87 10^6/mm^3. For the same compound, the “Red cell distribution width” value [4] was 18.9%, the “Red cell distribution width absolute” value [4] was 44.1 um^3 and the White blood cells [4] was 8.85 10^3/mm^3. The “Mean Percentage Inhibition ± SE” value ([5]; +1 day) was 17 ± 0.9%, the “Mean Percentage Inhibition ± SE” value ([5]; +3 day) was 18 ± 0.7% and the “Mean Percentage Inhibition ± SE” value ([5]; +5 day) was 9 ± 0.6%. For the same compound, the “Mean Percentage Inhibition ± SE” value ([5]; +7 day) was 9 ± 0.8%, the “Mean Percentage Inhibition ± SE” value ([5]; +10 day) was 8 ± 0.6% and the “Mean Percentage Inhibition ± SE” value ([5]; +12 day) was 10 ± 0.9%. The “Mean Percentage Inhibition ± SE” value ([5]; +14 day) was 11 ± 0.9%.

In the case of “NH2 terminated PAMAM dendrimer (EDA core) generation 4”, the Haematocrit [6] is reported as 37.3%, the Hemoglobin concentration [6] is reported as 11.3 gm/dl and the Large platelets [6] is reported as 7.75%. For the same compound, the “Mean Platelet Cell Volume” value [6] was 6.5 um^3, the Mean cell hemoglobin [6] was 18.9 pg and the “Mean cell hemoglobin concentration” value [6] was 38 g/dL. The “Mean cell volume for red blood cell” value [6] was 49.7 um^3, the Packed platelet volume [6] was 0.45% and the Platelet distribution width [6] was 8.6 um^3. The Platelets [6] was 700 10^3\mm^3, the Red blood cell [6] was 6 10^6/mm^3 and the “Red cell distribution width” value [6] was 14.9%. For the same compound, the “Red cell distribution width absolute” value [6] was 36.3 um^3 and the White blood cells [6] was 8.78 10^3/mm^3.

From US20070014757A1, “Compositions and complexes containing a macromolecular compound as potential anti-inflammatory agents” (COUNCIL OF SCIENTIFIC AND INDUSTRIAL RESEARCH, priority 2002, published 2007)
